Reference: patent US11993603B2, “Preparation for 6-amino-1H-pyrazolo[3,4-d]pyrimidine-based JAK kinase inhibitor and application thereof” (INSTITUTE OF MATERIA MEDICA, CHINESE ACADEMY OF MEDICAL …, priority 2018, dated 2024)

Assays:
Assay type in all cases: biochemical
JAK-3 = JAK-3 (Homo sapiens (Human), UniProt P52333); experiment: Inhibition test on JAK-3 kinase (FRET peptide substrate assay); conditions: kinase 1 nM, 1 h at room temperature; read-out: IC50 (nM) JAK-3
Excerpt: (§1) Experiment Example (Inhibition Tests on JAK-1, JAK-2 and JAK-3 Kinases)
(§2) To evaluate the inhibitory activity of the compound on JAK-1, JAK-2 and JAK-3 kinases
(§3) A proteolytic enzyme is coupled to exert different proteolysis on a specific phosphorylated and nonphosphorylated peptide substrate based on fluorescence resonance energy transfer (FRET). Both ends of the peptide substrate were respectively labeled FRET energy donor coumarin and energy receptor fluorescein, and at this time, the donor was stimulated to produce energy transfer when the donor is close to a receptor.
(§4) In Kinase Reaction, JAK-1, JAK-2 or JAK-3 may transfer γ-phosphoric acid in ATP onto a single tyrosine residue of a peptide substrate; and there were JAK-1, JAK-2 or JAK-3 inhibitors in the system, γ-phosphoric acid groups on ATP would be not transferred onto the peptide substrate, thus resulting in the failure of phosphorylation. An evaluation experiment was designed based on the principle, a peptide substrate was designed with kinase phosphorylation sites, namely, protein restriction enzyme cutting sites; and both ends thereof were respectively connected with 2 fluorophores as a donor and a receptor respectively; if the kinase kept activity in the system, a γ-phosphonic acid group was transferred onto restriction enzyme cutting sites of the substrate, so that the γ-phosphonic acid group would not be cut and separated into two segments by a protease; moreover, under the stimulation of a laser having a specific wavelength, energy from a segment of fluorescence would be transferred onto another end of fluorophores, thus emitting energy. Otherwise, after kinase activity was inhibited, phosphoric acid groups would be not transferred, and restriction enzyme cutting sites in the substrate would be cut by a […] in the system to separate the substrate into two segments, thereby no energy transfer of fluorescence occurred. Based on this, the activity of the kinase was evaluated.
(§5) In this experiment, a 10 μl kinase reaction system was selected, firstly, 2.5 μl kinase (concentration: 1 nM), 2.5 μl peptide substrate (concentration: 2 μM), 2.5 μl ATP (concentration: […]) and 2.5 μl compound were added to each system for reaction for 1 h at room temperature, and then a 5 μl test solution was added for reaction for 1 h at room temperature, then a 5 μl stop buffer was added. A microplate reader (Synergy H1, BioTek, USA) was used to measure fluorescence intensity (emission intensity of coumarin at 445 nm and emission intensity of fluorescein at 520 nm were detected under the stimulation of 400 nm). The inhibitory activity of each compound was calculated, where it was believed that fluorescence intensity of a well not containing the kinase was 100% inhibited.

JAK-2 = JAK-2 (Homo sapiens (Human), UniProt O60674); experiment: Inhibition test on JAK-2 kinase (FRET peptide substrate assay); conditions: kinase 1 nM, 1 h at room temperature
Excerpt: as §1, §2, §3, §4, §5

JAK-1 = JAK-1 (Homo sapiens (Human), UniProt P23458); experiment: Inhibition test on JAK-1 kinase (FRET peptide substrate assay); conditions: kinase 1 nM, 1 h at room temperature
Excerpt: as §1, §2, §3, §4, §5

Chain of JAK-1 (P23458 whole entry): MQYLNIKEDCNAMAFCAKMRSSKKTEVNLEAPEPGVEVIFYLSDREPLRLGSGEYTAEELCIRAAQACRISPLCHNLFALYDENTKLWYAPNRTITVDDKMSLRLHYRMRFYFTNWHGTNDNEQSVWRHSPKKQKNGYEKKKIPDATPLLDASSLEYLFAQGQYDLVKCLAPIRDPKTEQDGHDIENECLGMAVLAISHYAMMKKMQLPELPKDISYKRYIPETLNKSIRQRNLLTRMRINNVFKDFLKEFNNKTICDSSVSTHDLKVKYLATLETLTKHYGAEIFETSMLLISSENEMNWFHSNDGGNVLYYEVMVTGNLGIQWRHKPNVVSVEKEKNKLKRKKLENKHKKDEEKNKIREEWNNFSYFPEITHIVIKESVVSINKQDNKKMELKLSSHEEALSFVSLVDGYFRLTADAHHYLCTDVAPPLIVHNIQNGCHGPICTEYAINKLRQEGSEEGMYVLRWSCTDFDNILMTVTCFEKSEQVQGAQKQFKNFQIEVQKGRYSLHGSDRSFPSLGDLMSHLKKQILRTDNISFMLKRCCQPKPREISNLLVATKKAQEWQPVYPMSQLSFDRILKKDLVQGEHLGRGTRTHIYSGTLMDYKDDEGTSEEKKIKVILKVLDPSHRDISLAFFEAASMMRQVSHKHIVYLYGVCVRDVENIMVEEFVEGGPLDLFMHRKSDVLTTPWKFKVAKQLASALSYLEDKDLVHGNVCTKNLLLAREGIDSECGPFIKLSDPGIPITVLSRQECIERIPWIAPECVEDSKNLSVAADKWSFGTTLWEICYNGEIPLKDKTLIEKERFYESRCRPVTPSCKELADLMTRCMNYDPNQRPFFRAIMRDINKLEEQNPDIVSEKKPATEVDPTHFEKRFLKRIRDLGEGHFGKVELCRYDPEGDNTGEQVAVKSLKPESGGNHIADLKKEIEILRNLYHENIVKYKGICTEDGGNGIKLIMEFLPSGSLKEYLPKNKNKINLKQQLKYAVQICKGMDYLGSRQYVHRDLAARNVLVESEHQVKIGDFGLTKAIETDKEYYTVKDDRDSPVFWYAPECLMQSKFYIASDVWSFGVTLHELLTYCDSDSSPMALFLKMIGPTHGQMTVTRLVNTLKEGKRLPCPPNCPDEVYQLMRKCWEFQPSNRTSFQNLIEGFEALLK
Chain of JAK-3 (P52333 whole entry): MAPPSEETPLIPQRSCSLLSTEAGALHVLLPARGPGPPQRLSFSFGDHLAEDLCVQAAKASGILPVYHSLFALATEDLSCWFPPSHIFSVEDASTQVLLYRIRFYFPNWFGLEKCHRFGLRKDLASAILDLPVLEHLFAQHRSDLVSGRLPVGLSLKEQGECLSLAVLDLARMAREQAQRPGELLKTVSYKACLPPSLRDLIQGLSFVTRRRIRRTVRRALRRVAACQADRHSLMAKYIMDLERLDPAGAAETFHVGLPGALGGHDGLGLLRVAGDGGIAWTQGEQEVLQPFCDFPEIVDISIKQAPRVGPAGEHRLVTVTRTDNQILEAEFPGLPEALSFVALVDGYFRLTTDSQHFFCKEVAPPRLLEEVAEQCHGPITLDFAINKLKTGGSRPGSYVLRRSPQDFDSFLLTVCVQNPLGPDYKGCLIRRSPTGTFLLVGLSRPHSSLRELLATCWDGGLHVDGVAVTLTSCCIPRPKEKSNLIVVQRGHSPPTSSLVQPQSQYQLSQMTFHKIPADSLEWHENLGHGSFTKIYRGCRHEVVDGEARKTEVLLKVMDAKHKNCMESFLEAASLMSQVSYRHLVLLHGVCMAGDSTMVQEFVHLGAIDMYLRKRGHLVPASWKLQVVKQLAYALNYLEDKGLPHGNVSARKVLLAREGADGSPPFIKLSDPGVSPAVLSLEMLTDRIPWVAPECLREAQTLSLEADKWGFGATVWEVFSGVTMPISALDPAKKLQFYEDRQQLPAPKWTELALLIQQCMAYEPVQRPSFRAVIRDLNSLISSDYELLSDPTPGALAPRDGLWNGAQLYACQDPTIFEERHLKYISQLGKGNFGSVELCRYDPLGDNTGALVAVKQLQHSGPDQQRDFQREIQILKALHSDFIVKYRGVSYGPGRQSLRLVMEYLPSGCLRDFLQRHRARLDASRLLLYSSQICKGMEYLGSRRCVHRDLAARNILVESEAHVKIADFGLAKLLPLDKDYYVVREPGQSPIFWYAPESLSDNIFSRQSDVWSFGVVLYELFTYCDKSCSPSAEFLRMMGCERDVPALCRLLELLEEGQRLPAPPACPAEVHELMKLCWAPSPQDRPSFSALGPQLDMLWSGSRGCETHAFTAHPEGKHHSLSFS
Chain of JAK-2 (O60674 whole entry): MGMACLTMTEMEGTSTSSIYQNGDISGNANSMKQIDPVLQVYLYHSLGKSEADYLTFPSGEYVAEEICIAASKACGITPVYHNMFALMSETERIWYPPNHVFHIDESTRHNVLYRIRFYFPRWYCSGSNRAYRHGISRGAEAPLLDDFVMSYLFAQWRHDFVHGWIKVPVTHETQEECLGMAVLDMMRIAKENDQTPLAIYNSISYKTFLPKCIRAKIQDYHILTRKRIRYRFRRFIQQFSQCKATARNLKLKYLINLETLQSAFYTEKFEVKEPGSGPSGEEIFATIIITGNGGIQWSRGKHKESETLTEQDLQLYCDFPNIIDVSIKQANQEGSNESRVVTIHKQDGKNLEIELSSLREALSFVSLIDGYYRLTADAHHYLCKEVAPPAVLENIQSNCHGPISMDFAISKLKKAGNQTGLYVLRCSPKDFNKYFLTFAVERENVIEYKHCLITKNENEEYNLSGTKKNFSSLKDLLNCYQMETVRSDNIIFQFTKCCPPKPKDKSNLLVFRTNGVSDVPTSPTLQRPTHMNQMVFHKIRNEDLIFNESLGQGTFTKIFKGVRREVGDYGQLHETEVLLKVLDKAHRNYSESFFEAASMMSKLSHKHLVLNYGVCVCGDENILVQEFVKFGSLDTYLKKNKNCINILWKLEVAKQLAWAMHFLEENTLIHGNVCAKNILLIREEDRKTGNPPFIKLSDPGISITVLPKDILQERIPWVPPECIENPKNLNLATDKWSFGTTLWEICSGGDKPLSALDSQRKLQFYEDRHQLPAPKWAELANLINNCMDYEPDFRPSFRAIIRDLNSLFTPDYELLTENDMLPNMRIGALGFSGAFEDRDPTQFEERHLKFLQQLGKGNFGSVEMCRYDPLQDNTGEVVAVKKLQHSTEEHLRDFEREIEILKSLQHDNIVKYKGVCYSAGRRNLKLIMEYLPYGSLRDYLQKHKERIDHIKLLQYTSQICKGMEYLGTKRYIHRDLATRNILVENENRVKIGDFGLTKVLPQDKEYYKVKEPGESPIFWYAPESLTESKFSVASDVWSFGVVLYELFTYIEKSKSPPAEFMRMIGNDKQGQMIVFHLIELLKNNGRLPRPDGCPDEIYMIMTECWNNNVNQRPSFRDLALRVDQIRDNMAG

| IC50 (JAK-3) | IC50 (JAK-2) | IC50 (JAK-1) | SMILES |
| --- | --- | --- | --- |
| 2.8 nM | 1280 nM | 1990 nM | C=CC(=O)Nc1ccc(Cn2ncc3cnc(Nc4ccccc4)nc32)cc1 [Example 18, N-(4-((6-aniline-1H-pyrazolo[3,4-d]pyrimidin-1-yl)methyl)phenyl)acrylamide] |
| 0.5 nM | 602 nM | 1540 nM | C=CC(=O)Nc1ccc(Cn2ncc3cnc(Nc4cnn(CCOC)c4)nc32)cc1 [Example 15, N-(4-((6-((1-(2-methoxyethyl)-1H-pyrazol-4-yl)amino)-1H-pyrazolo[3,4-d]pyrimidine-1-yl)methyl)phenyl)acrylamide] |
